Where a SMILES comes first, the peptide text is derived from it. Bridges are numbered along the chain shown (N, C = ends). Roman numbers before positions name the chains, in order.
Legend:
TNF-α = assay: LPS-induced TNF-α release by human PBMC (sandwich ELISA); format: cell-based; conditions: human PBMC + LPS (S. typhosa), 18-24 h, 37°C, peptide 10 nM-100 µM in triplicate, IC50 estimated from graph, representative set, one volunteer
Protocol: (§1) Cytokine Assays: One-hundred µL of PBMC (2 x 10^6/ml in Complete Medium) were added to each well of a flat-bottom, 96-well tissue culture plate. To each well was then added 50 µL of media or peptide (4X desired final concentration; in Complete Medium) and 50 µL of lipopolysaccharide (LPS; S. typhosa; Sigma, St. Louis, MO; 400 ng/ml Complete Medium). Each peptide was tested in triplicate at 5 log10 concentrations ranging from 100 µM to 10 nM. Plates were incubate 18-24 h at 37°C in 5% humidified CO2. Plates were then centrifuged and 100 µL of supernatant removed from each well and stored frozen at -80°C until assayed. Cytokines (TNF-α, IL-1β, IL-6, GM-CSF) were measured by sandwich ELISA assays (R & D Systems; Minneapolis, MN) using the manufacturer’s instructions. The released cytokine concentration was determined from a standard curve using recombinant cytokine provided with each kit.

IL-1β = assay: LPS-induced IL-1β release by human PBMC (sandwich ELISA); format: cell-based; conditions: 18-24 h, peptide 10 nM-100 µM in triplicate, IC50 estimated from graph
Protocol: as §1

IL-6 = assay: LPS-induced IL-6 release by human PBMC (sandwich ELISA); format: cell-based; conditions: 18-24 h, peptide 10 nM-100 µM in triplicate, IC50 estimated from graph
Protocol: as §1

GM-CSF = assay: LPS-induced GM-CSF release by human PBMC (sandwich ELISA); format: cell-based; conditions: 18-24 h, peptide 10 nM-100 µM in triplicate, IC50 estimated from graph
Protocol: as §1

PAF = assay: Zymosan-induced PAF release by adherent human PBMC; format: cell-based; conditions: 1 h peptide then Zymosan 90 min, IC50 estimated from graph
Protocol: Platelet Activating Factor (PAF) and Leukotriene B4 (LTB4) Assays: PBMC were prepared as described above and adjusted to 3.3 x 10^6 cells/ml in RPMI-1640 medium containing 5 mg/ml HSA (Sigma, St. Louis, MO). To each well of a 48-well tissue culture plate was added 0.3 ml of cell suspension. The plate was incubated for 2 h at 37°C and 5% CO2 to allow cells to adhere. The wells were then washed 3X with HHBSS (Hank’s Balanced Salt Solution with 5 mg/ml HSA) at room temperature (RT). One-hundred seventy-five µL of HHBSS or test material in HHBSS was then added to each well and the plates incubated for 1 h at 37°C and 5% CO2. Samples were set up in quadruplicate. To each of duplicate wells for each sample was then added 175 µL of HHBSS or HHBSS containing 600 µg/ml of Zymosan (Sigma, St. Louis, MO). The plates were then incubated for 90 min at 37°C and 5% CO2. The plates were centrifuged and supernatants removed for quantitation of PAF or LTB4 according to the kit manufacturer’s (Amersham Pharmacia; Piscataway, NJ) instructions. The released PAF or LTB4 concentration was determined from a standard curve using standards provided with each kit.

Adhesion = assay: Monocyte adhesion to endothelial cells (HUVEC); format: cell-based, human; conditions: calcein-labelled PBMC on HUVEC, TNF-α stimulated; peptide 10 nM-100 µM
Protocol: Monocyte Adhesion to Endothelial Cells: To each well of a 96-well tissue culture plate was added 100 µL of HUVEC at 2 x 10^4 cells/ml. The plates were then incubated 48 h at 37°C and 5% CO2. PBMC, prepared as above, were washed once in serum-free RPMI-1640 medium. Calcein-AM (Sigma; St. Louis, MO) was added to a final concentration of 10 µg/ml, the cells incubated 30 min at 37°C, and then washed once with serum-free RPMI-1640. The cells were then washed an additional time with Complete Medium and resuspended to a concentration of 3 x 10^6/ml in Complete Medium. For each concentration of compound to be tested, 200 µL of labeled PBMC was incubated with 200 µL of test compound (2X desired final concentration) in polypropylene tubes. Similarly, for each concentration of compound to be tested, 50 µL of medium was removed from a well of the plated HUVEC and 50 µL of medium containing the test compound (2X desired final concentration) was added. Both tubes and plates were incubated 1 h at 37°C in 5% CO2. All peptides were tested at log10 concentrations of 10 nM to 100 µM. […] The plate was then read on a fluorescent spectrophotometer with filter settings of λ = 485exc/530emi. […] The plate was blotted to remove any media and read again on the fluorescent spectrophotometer. Percent of Maximum Adhesion (% Max. Adh.) was calculated as: […]

Platelet Aggregation = assay: Platelet aggregation; format: cell-based, human; conditions: for IC50: human blood cells
human blood monocytes = assay: [125I]-MN20054 binding/uptake by human blood monocytes; conditions: 100-fold molar excess unlabeled peptide, 60 min, 37°C, PBS 0.5% BSA pH 7.5, triplicate, gamma counting (Figure 6A)
Protocol: (Perkin Elmer; Boston, MA) using the chloramine-T method. Human blood monocytes (purified by adherence to plastic; 10^6/0.2 ml in PBS with 0.5% BSA, pH 7.5 in 12×75 mm polypropylene tubes) were incubated in triplicate at 37°C for 60 min with 40 pmol [^125I]-MN20054 (∼20 Ci/mmol) in the presence or absence of a 100-fold molar excess of unlabeled peptide. Tubes were shaken gently during the incubation. The contents of each tube were layered onto a layer of 0.8 ml of 10% sucrose in polypropylene Eppendorf tubes and the tubes centrifuged for 5 min at 8,000×g to separate cell-associated from free ligand. The tubes were then snap-frozen in a dry-ice/acetone bath and the bottom of the tube containing the cell pellet cut off and then counted in a gamma-scintillation spectrophotometer. In studies to determine how much of the uptake was due to endocytosis, binding/uptake was performed as described above with the exception that half of the monocytes were pretreated for 30 min at 37°C with cytochalasin B (10 µg/ml; Sigma; St. Louis, MO).

[1] = system: nitrate in HUVEC supernatants; assay: NO release (nitrate as nitrite) from HUVEC; format: cell-based, human; conditions: 50 µM peptide
Protocol: HUVEC were grown to 80–90% confluence in 12-well tissue culture plates using defined media provided by Cambrex and supplemented with 10% FBS. Triplicate wells were incubated with either media alone or media containing 50 µM of the indicated peptide. Supernatant samples were removed from each well at 6 h and 24 h post peptide addition and assayed for NO release as measured by the presence of nitrate (converted to nitrite) using a kit supplied by Oxford Biomedical Research (Rochester Hill, MI) according to the manufacturer's instructions.

Compound | IC50 (TNF-α) [µM] | IC50 (IL-1β) [µM] | IC50 (IL-6) [µM] | IC50 (GM-CSF) [µM] | IC50 (PAF) [µM] | IC50 (Adhesion) [µM] | IC50 (Platelet Aggregation) [µM] | inhibition of binding or uptake of [125I]-MN20054 by monocytes (human blood monocytes) [%] | nitrate release, percent of MN10021 ([1]; 6 h and ON incubations) [%] | effect on ADP- and epinephrine-induced human platelet aggregation (Platelet Aggregation; in vitro, data not shown) | nitrate release (as measured by nitrite assay) from HUVEC ([1]; 6 h or ON)
H-LGGEKLFLLDGRNQLC-OH (disulfide (positions not given here)) [MN20050] | > 100 | > 100 | > 100 | > 100 | > 100 | > 100 | > 100 | < 10 | ≤ 25 | – | –
CC(C)C[C@H](NC(=O)CNC(=O)CNC(=O)[C@H](CCC(=O)O)NC(=O)[C@H](CCCCN)NC(=O)[C@H](CC(C)C)NC(=O)[C@H](Cc1ccccc1)NC(=O)[C@H](CC(C)C)NC(=O)[C@H](CC(C)C)NC(=O)[C@H](CC(=O)O)NC(=O)[C@H](CC(C)C)NC(=O)CNC(=O)[C@H](CCCNC(=N)N)NC(=O)[C@H](CCCNC(=N)N)NC(=O)[C@H](CC(N)=O)NC(=O)[C@H](CCC(N)=O)NC(=O)[C@@H](N)CC(C)C)C(=O)N[C@@H](CSSC[C@H](NC(=O)[C@H](CC(C)C)NC(=O)CNC(=O)CNC(=O)[C@H](CCC(=O)O)NC(=O)[C@H](CCCCN)NC(=O)[C@H](CC(C)C)NC(=O)[C@H](Cc1ccccc1)NC(=O)[C@H](CC(C)C)NC(=O)[C@H](CC(C)C)NC(=O)[C@H](CC(=O)O)NC(=O)[C@H](CC(C)C)NC(=O)CNC(=O)[C@H](CCCNC(=N)N)NC(=O)[C@H](CCCNC(=N)N)NC(=O)[C@H](CC(N)=O)NC(=O)[C@H](CCC(N)=O)NC(=O)[C@@H](N)CC(C)C)C(=O)O)C(=O)O [MN10021] (I: H-LQNRRGLDLLFLKEGGLC-OH / II: H-LQNRRGLDLLFLKEGGLC-OH; disulfide I:18-II:18) | 6.2 | 17 | > 100 | 8 | 12.5 | > 100 | 5 | ~65 | – | inhibit | induced nitrate release
